# Test results published in patent US20110230659A1, “CYCLOBUTYL PURINE DERIVATIVE, ANGIOGENESIS PROMOTING AGENT, LUMEN FORMATION PROMOTING AGENT, NEUROCYTE GROWTH PROMOTING AGENT, AND DRUG” (NATIONAL UNIVERSITY CORPORATION KAGAWA UNIVERSITY, priority 2008, published 2011).
# How the values were obtained:
# MEK = MEK phosphorylation immunoblot in HUVEC; type: cell-based, human; settings: 100 μmol/l; 15 minutes after the addition
# Method: First, to a HuMedia-EB2 medium (Kurabo) to which 2 v/v % inactivated fetal bovine serum (FBS) had been added, 2-Cl—C.OXT-A was added so that its concentration became 100 μmol/l. Thus, a medium was prepared. Using the medium, human umbilical vein endothelial cells (HUVEC) were cultured for predetermined periods (0, 10, 20, 30, 45, and 60 minutes).
# After the culture, cells were collected. The collected cells were lysed by adding a cell lysis buffer (SDS-lysis buffer) thereto, and heat-denatured at 95° C. for 5 minutes. […]
# The enzymes were visualized with SuperSignal (registered trademark) West Pico Chemiluminescent Substrate (Pierce), and detected by being exposed to RX—U X-ray film (FUJIFILM Corporation). From the detected bands, the respective phosphoenzymes and total enzymes were quantified using an NIH image software. Furthermore, the relative value (−fold) of each phosphoenzyme was calculated by substituting the measured value of the phosphoenzyme into the following equation (III). […]
# In the present example, the effect of 2-Cl—C.OXT-A used in Example 1 on the phosphorylation of MEK was examined. MEK is a protein kinase involved in the angiogenesis signal transduction pathway and located upstream of ERK measured in Example 3, and acts to promote angiogenesis. […]
# [1] = test system: rat adrenal medulla-derived cell line PC12; experiment: Differentiation of PC12 cells, AChE activity (Ellman's method); type: cell-based; settings: 2-Cl—C.OXT-A 50 μmol/l and 100 μmol/l, sixth day of culture
# Method: Three samples were prepared by adding additives shown in Table 5 below to PBS so as to achieve predetermined concentrations. Also, an evaluation medium was prepared by adding each sample or PBS to DMEM (no serum) so that its concentration became 10 v/v %. Furthermore, as a control medium, a medium containing only DMEM (no serum) was prepared. The PC12 cells were suspended at a density of 5×10^4 cells/ml in DMEM to which 5 v/v % cow serum and 10 v/v % horse serum had been added. Thus, a cell suspension was prepared. 3 ml of the cell suspension was inoculated into a 6 petri dish. […] On the sixth day of the culture, the cells were photographed under a microscope, and the AChE activity was measured according to the Ellman's method (Ellman, G. L., et al., Biochem. Pharmacol., 7, pp. 88-95, (1961)). Specifically, the AChE activity was measured in the following manner. […] The sample solution, 75 μl of 10 mmol/l DTNB, and 3.0 ml of 0.1 mol/l phosphate buffer solution (pH 8.0) were added to a […] for absorbance measurement, and finally, 50 μl of 100 mmol/l acetylthiocholine was added to cause a reaction. The absorbance of the reaction solution at 412 nm was measured for 5 minutes from immediately after the addition of the ace tylthiocholine. From the thus-measured absorbances, the amount of increase in absorbance (C) per minute was determined. […]
# [2] = test system: cornea of Japanese white rabbit; experiment: Angiogenesis test, rabbit cornea assay; type: in vivo; settings: 16 mmol/l in 30 μl of physiological saline injected to cornea, observed after 7 days
# Method: In the present example, the effect of 2-Cl—C.OXT-A of Example 1 on angiogenesis was examined by a rabbit cornea assay.
# A sample was prepared by adding 2-Cl—C.OXT-A to 30 μl of physiological saline so that its concentration became 16 mmol/l. The sample was injected to a cornea of Japanese white rabbit (male, 2.8 kg) under sevoflurane anesthesia. The cornea was observed after a lapse of 7 days.
compound,measurement,setting,value
"Nc1nc(Cl)nc2c1ncn2C1CC(CO)C1CO (stereo not drawn) [2-Cl—C.OXT-A, 6-amino-2-chloro-9-[trans-trans-2,3-bis(hydroxymethyl)cyclobutyl]purine]",relative value (−fold) of pMEK,MEK,about 3.5 fold
same,AChE enzyme activity (relative value),[1],increased
same,angiogenesis in the cornea,[2],considerable angiogenesis
